Biological target: T1, Pantothenate synthetase (Mycobacterium tuberculosis, UniProt P9WIL5)
T1 sequence (P9WIL5 whole entry): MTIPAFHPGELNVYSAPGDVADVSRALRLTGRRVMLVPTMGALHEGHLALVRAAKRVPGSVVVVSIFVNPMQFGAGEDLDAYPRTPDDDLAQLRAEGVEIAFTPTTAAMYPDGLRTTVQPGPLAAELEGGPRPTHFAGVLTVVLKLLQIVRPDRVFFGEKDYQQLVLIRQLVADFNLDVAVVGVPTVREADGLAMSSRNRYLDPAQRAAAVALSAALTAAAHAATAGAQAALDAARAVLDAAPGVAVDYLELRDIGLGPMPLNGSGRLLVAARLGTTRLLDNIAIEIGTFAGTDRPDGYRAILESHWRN
Assay: Inhibition of Mycobacterium tuberculosis pantothenate synthetase expressed in Escherichia coli

SMILES: COc1ccc2c(c1)cc(C(=O)NS(=O)(=O)Cc1ccc(C(F)(F)F)cc1)n2CC(=O)O
- IC50: 0.25 µM

Reference: ChEMBL document CHEMBL3817781, “Identifying Interactions that Determine Fragment Binding at Protein Hotspots” (J Med Chem, 2016)
